In this assay the test system is C57BL/6J ob/ob mice. Put plainly: Anti-diabetic activity in the C57BL/6j ob/ob mice model (plasma glucose lowering, insulin level). Type of assay: in vivo. The note with it: male C57BL/6J ob/ob mice, orally by gavage once a day for 1-4 days; for Insulin Level compared with vehicle: drug-treated vs vehicle-treated; for minimal effective dose: Mus musculus, po, glucose lowering, plasma glucose 6 hours after each dose, read-out: Potency. The procedure: The anti-diabetic activities of the compounds were evaluated in the C57BL/6j ob/ob Mice model. Male, 7-9 weeks old, C57BL/6J ob/ob mice were purchased from The Jackson Laboratory (Bar Harbor, Me., USA). Animals were housed (4-5 mice/cage) under standard laboratory conditions at 22±3° C. temperature and 50±20% relative humidity, and were maintained on a diet of Purina rodent chow and water ad libitum. Prior to treatment, blood was collected from the tail vein of each animal. Mice that had non-fasting plasma glucose levels between 250 and 500 mg/dl were used. Each treatment group consisted of 8-10 mice that were distributed so that the mean glucose levels were equivalent in each group at the start of the study. Mice were dosed orally by gavage once a day for 1-4 days with vehicle and one or more dose of test compound at a dose ranging from 5 to 125 mg/kg. Compounds were delivered in a liquid formulation containing 5% (v/v) dimethyl sulfoxide (DMSO), 1% (v/v) Tween 80® and 0.9% (w/v) methylcellulose. The gavage volume was 10 ml/kg. Blood samples were taken at 6 hours after the each dose and analyzed for plasma glucose. Food intake and body weight were measured daily. Plasma glucose concentrations were determined calorimetrically using a commercial glucose oxidase method (Sigma Chemical Co, St. Louis, Mo., USA). Significant difference between groups (comparing drug-treated to vehicle-treated) was evaluated using the Student unpaired t-test. Table 1 provides the relative potency of some selected compounds of the invention.

The values that follow come from patent publication US7371888B2, “α-(Trifluoromethyl-substituted aryloxy, arylamino, arylthio or arylmethyl)-trifluoromethyl-substituted phenylacetic acids and derivatives as antidiabetic agents” (Metabolex, Inc., priority 2004, dated 2008).

Take `O=C(O)C(Oc1ccc(C(F)(F)F)cc1)c1cccc(C(F)(F)F)c1` (single isomer, unassigned; (+)) [(+)-39, (4-trifluoromethyl-phenoxy)-(3-trifluoromethyl-phenyl)-acetic acid]: the “Insulin Level compared with vehicle” value is “Lower”.
With `O=C(O)C(Oc1ccc(C(F)(F)F)cc1)c1cccc(C(F)(F)F)c1` (single isomer, unassigned; (-)) [(−)-39, (4-trifluoromethyl-phenoxy)-(3-trifluoromethyl-phenyl)-acetic acid], the “Insulin Level compared with vehicle” value is “Lower”.
For the molecule `O=C(O)C(Oc1ccc(C(F)(F)F)cc1)c1cccc(C(F)(F)F)c1` (centres unmarked) [Compound 39, (4-Trifluoromethyl-phenoxy)-(3-trifluoromethyl-phenyl)-acetic acid], the “Insulin Level compared with vehicle” value was “Lower”.
For the molecule `O=C(O)C(Oc1cc(C(F)(F)F)cc(C(F)(F)F)c1)c1ccc(C(F)(F)F)cc1` (centres unmarked) [Compound 81], the minimal effective dose is not above 125 mg/kg and the “Insulin Level compared with vehicle” value is “Lower”.
The matching figures for `O=C(O)C(Oc1ccc(C(F)(F)F)cc1)c1ccc(C(F)(F)F)cc1` (centres unmarked) [Compound 83, (4-Trifluoromethyl-phenoxy)-(4-trifluoromethyl-phenyl)-acetic acid]: not above 125 mg/kg and “Lower”.
The matching figures for `O=C(O)C(Oc1ccc(C(F)(F)F)cc1Cl)c1cccc(C(F)(F)F)c1` (centres unmarked) [Compound 85, (2-Chloro-4-trifluoromethyl-phenoxy)-(3-trifluoromethyl-phenyl)-acetic acid]: not above 125 mg/kg and “Lower”.
The matching figures for `O=C(O)C(Oc1cccc(C(F)(F)F)c1)c1ccc(C(F)(F)F)cc1` (centres unmarked) [Compound 86, (3-trifluoromethyl-phenoxy)-(4-trifluoromethyl-phenyl)-acetic acid]: not above 125 mg/kg and “Lower”.
With `O=C(O)C(Oc1ccc(C(F)(F)F)cc1Cl)c1ccc(C(F)(F)F)cc1` (centres unmarked) [Compound 89, (2-Chloro-4-trifluoromethyl-phenoxy)-(4-trifluoromethyl-phenyl)-acetic acid], the minimal effective dose is not above 125 mg/kg and the “Insulin Level compared with vehicle” value is “Lower”.
On the same counts, the results for `O=C(O)C(Oc1ccc(C(F)(F)F)cn1)c1cccc(C(F)(F)F)c1` (centres unmarked) [Compound 100, (3-trifluoromethyl-phenyl)-(5-trifluoromethyl-pyridin-2-yloxy)-acetic acid] are not above 125 mg/kg and “Lower”.
`CC(Oc1ccc(C(F)(F)F)cc1)(C(=O)O)c1cccc(C(F)(F)F)c1` (centres unmarked) [Compound 120, 2-(4-trifluoromethyl-phenoxy)-2-(3-trifluoromethyl-phenyl)-propionic acid]: the minimal effective dose is not above 125 mg/kg and the “Insulin Level compared with vehicle” value is given as “Lower”.
Take `CC(Oc1ccc(C(F)(F)F)cc1)(C(=O)O)c1ccc(C(F)(F)F)cc1` (centres unmarked) [Compound 121, 2-(4-Trifluoromethyl-phenoxy)-2-(4-trifluoromethyl-phenyl)-propionic acid]: the minimal effective dose is not above 125 mg/kg and the “Insulin Level compared with vehicle” value is “Lower”.
The matching figures for `OCC(Oc1ccc(C(F)(F)F)cc1Cl)c1ccc(C(F)(F)F)cc1` (centres unmarked) [Compound 128]: not above 125 mg/kg and “Lower”.
The matching figures for `CC(=O)NCCOC(=O)C(Oc1ccc(C(F)(F)F)cc1)c1cccc(C(F)(F)F)c1` (centres unmarked) [Compound 136, (4-trifluoromethyl-phenoxy)-(3-trifluoromethyl-phenyl)-acetic acid 2-acetylamino-ethyl ester]: not above 125 mg/kg and “Lower”.
On the same counts, the results for `CC(=O)NCCOC(=O)C(Oc1cccc(C(F)(F)F)c1)c1ccc(C(F)(F)F)cc1` (centres unmarked) [Compound 142] are not above 125 mg/kg and “Lower”.
`CC(=O)NCCOC(=O)C(Oc1cc(C(F)(F)F)cc(C(F)(F)F)c1)c1ccc(C(F)(F)F)cc1` (centres unmarked) [Compound 143]: the minimal effective dose is not above 125 mg/kg and the “Insulin Level compared with vehicle” value is given as “Lower”.
On the same counts, the results for `CC(=O)NCCOC(=O)C(Oc1cccc(C(F)(F)F)c1)c1cccc(C(F)(F)F)c1` (centres unmarked) [Compound 144] are not above 125 mg/kg and “Lower”.
As for `CC(=O)NCCOC(=O)C(Oc1ccc(C(F)(F)F)cc1)c1ccc(C(F)(F)F)cc1` (centres unmarked) [Compound 145], the minimal effective dose was not above 125 mg/kg and the “Insulin Level compared with vehicle” value is listed as “Lower”.
On the same counts, the results for `CC(=O)NCCOC(=O)C(Oc1ccccc1C(F)(F)F)c1ccc(C(F)(F)F)cc1` (centres unmarked) [Compound 146] are more than 125 mg/kg and “Lower”.
Turning to `CC(=O)NCCOC(=O)C(Oc1cccc(C(F)(F)F)c1)c1ccccc1C(F)(F)F` (centres unmarked) [Compound 147], the minimal effective dose was more than 125 mg/kg and the “Insulin Level compared with vehicle” value is given as “Lower”.
